Measured values as given in patent publication US8455397B2, “Penoxsulam as a turfgrass, vineyard and orchard floor herbicide” (Dow AgroSciences, LLC, priority 2005, dated 2013).

Key:
[1] = tested on: pennywort (dollarweed) (HYDSS); assay: Granule carrier/particle size, postemergent field study; assay type: in vivo, Hydrocotyle spp
Method: (§1) Greenhouse and field studies evaluated the effect of two granule carriers and two particles sizes on the postemergent broadleaf activity of penoxsulam. The two carriers were a 46-0-0 and 28-4-12 fertilizer blend and the particle sizes averaged 0.75 mm and 2.15 mm.
(§2) Field studies were conducted in established turfgrass sites containing a natural population of target broadleaf weeds. Replicated trials, containing a minimum of three replications and having individual plots ranging in size from 25 to 50 ft. sq (2.3 to 4.6 square meters), were initiated in the late spring when turf and weeds were actively growing. Granule treatments were uniformly applied to individual plots using a common hand-shaker method. Applications were made in the early morning when dew was present. Natural rainfall and supplemental irrigation were used to maintain healthy turf and active weed growth throughout the study period. Control of each weed species in the study site was made at 2, 4 and 8 weeks after treatment. Control was determined visually by comparing treated and untreated weeds and scored on a 0 to 100 percent scale where 0 corresponds to no control and 100 corresponds to complete kill.

little mallow (MALPA) = assay: Pre-emergence orchard floor weeds, greenhouse study; assay type: in vivo, Malva parviflora; details: 28 Days After Application
Method: (§3) Greenhouse studies were conducted by seeding species in a loam soil and applying the herbicides to the soil surface using a Cornwall 5 milliliter glass syringe fitted with a TeeJet TN-3 nozzle on an area basis Immediately following herbicide application the pots were irrigated over the top to move the herbicides into the seeding zone. Pots were kept well irrigated throughout the trial. A percent visual weed control assessment was taken 4 weeks after application. Control was determined visually by comparing treated and untreated pots and scored on a 0 to 100 percent scale where 0 corresponds to no control and 100 corresponds to complete kill, or no emergence.

common groundsel (SENVU) = assay: as above; assay type: in vivo, Senecio vulgaris; details: 28 Days After Application
Method: as §3

common mallow (MALNE) = assay: as above; assay type: in vivo, Malva neglecta; details: 28 Days After Application
Method: as §3

[2] = tested on: broadleaf plantain (PLAMA); assay: Postemergent granule herbicides, turfgrass field studies; assay type: in vivo, Plantago major L.; details: Table I, 2 sites, Penoxsulam 140 gai/Ha, Scotts Plus 2 1682+841 gae/Ha, Trimec 1121+516+112 gae/Ha
Method: as §2

[3] = tested on: buckhorn plantain (PLALA); assay: as above; assay type: in vivo, Plantago lanceolata L.; details: Table I, 3 sites, Penoxsulam 140 gai/Ha, Scotts Plus 2 1682+841 gae/Ha, Trimec 1121+516+112 gae/Ha
Method: as §2

wild mustard (SINAR) = assay: Pre-emergence orchard floor weeds, greenhouse study; assay type: in vivo, Sinapsis arvense; details: 28 Days After Application
Method: as §3

[4] = tested on: broadleaf plantain (PLAMA); assay: Granule carrier comparison, pre-emergence greenhouse study; assay type: in vivo, Plantago major L.; details: pre-emergent greenhouse
Method: as §1
(§4) Greenhouse studies were applied both post and pre-emergence to broadleaf weeds and sedge reared from seed or nutlet in 12.7″ (32.25 cm) by 8.8″ (22.35 cm) flats of a loam soil. Particle size and carrier were evaluated post emergence, carrier comparisons with the smaller particle size of 0.75 was evaluated pre-emergence. Stage of growth of species at post emergence application: PLAMA and TAROF in the 3 to 5 leaf stage, TRFRE in the 3rd tri-foliate stage and CYPES in the 3 to 4 leaf stage. Post emergence trial design was a replicated block, one species per flat, 3 replicate flats per treatment. Granule treatments were uniformly applied to individual flats on an area basis using a common hand-shaker method. Post emergence applications were made to the flat covering both soil and misted foliage. Trial was sub-irrigated daily, and watered over the top 1 time per week starting 7 days after application to simulate a natural rainfall event. Active weed growth was maintained throughout the study period. Weed control of each species in the post emergence study was assessed at 2, 3 and 4 weeks after treatment. Pre-emergence trial design was 2 species per flat, 4 replicate flats, block design. Pre-emergence applications were made to the soil surface using a common hand shaker method on an area basis. Overhead irrigation was maintained throughout the trial. Weed control of each species in the pre-emergence study was assessed at 2, 3, 4 and 5 weeks after application. Control was determined visually by comparing treated and untreated flats and scored on a 0 to 100 percent scale where 0 corresponds to no control and 100 corresponds to complete kill.

[5] = tested on: Virginia buttonweed (DIQVI); assay: Postemergent granule herbicides, turfgrass field studies; assay type: in vivo, Diodia virginiana L.; details: Table III, 1 site
Method: as §2

dandelion (TAROF) = assay: Granule carrier comparison, pre-emergence greenhouse study; assay type: in vivo, Taraxacum officinale; details: pre-emergent greenhouse
Method: as §1, §4

[6] = carrier 28-4-12, particle size 0.75 mm, 11.2 gai/Ha
[7] = carrier 28-4-12, particle size 0.75 mm, 22.4 gai/Ha
[8] = carrier 46-0-0, particle size 0.75 mm, 11.2 gai/Ha
[9] = carrier 46-0-0, particle size 0.75 mm, 22.4 gai/Ha
[10] = carrier 28-4-12, particle size 0.75 mm, 5.6 gai/Ha
[11] = carrier 46-0-0, particle size 0.75 mm, 5.6 gai/Ha

## COc1cnc(OC)n2nc(NS(=O)(=O)c3c(OCC(F)F)cccc3C(F)(F)F)nc12 [Penoxsulam, 2-(2,2-difluoroethoxy)-N-(5,8-dimethoxy[1,2,4]triazolo[1,5-c]-pyrimidin-2-yl)-6-(trifluoromethyl)benzenesulfonamide]
[1]; [6]
  Percent Weed Control 26-27 DAA: 56%
[1]; [7]
  Percent Weed Control 26-27 DAA: 70%
[1]; carrier 28-4-12, particle size 2.15 mm, 11.2 gai/Ha
  Percent Weed Control 26-27 DAA: 49%
[1]; carrier 28-4-12, particle size 2.15 mm, 22.4 gai/Ha
  Percent Weed Control 26-27 DAA: 42%
[1]; [8]
  Percent Weed Control 26-27 DAA: 44%
[1]; [9]
  Percent Weed Control 26-27 DAA: 87%
[1]; carrier 46-0-0, particle size 2.15 mm, 11.2 gai/Ha
  Percent Weed Control 26-27 DAA: 38%
[1]; carrier 46-0-0, particle size 2.15 mm, 22.4 gai/Ha
  Percent Weed Control 26-27 DAA: 75%
Little mallow (MALPA); 8.8 gai/Ha
  Pre-emergent Percent Mean Control: 74%
Little mallow (MALPA); 17.5 gai/Ha
  Pre-emergent Percent Mean Control: 87%
Little mallow (MALPA); 35 gai/Ha
  Pre-emergent Percent Mean Control: 93%
Little mallow (MALPA); 70 gai/Ha
  Pre-emergent Percent Mean Control: 100%
Common groundsel (SENVU); 8.8 gai/Ha
  Pre-emergent Percent Mean Control: 95%
Common groundsel (SENVU); 17.5 gai/Ha
  Pre-emergent Percent Mean Control: 100%
Common groundsel (SENVU); 35 gai/Ha
  Pre-emergent Percent Mean Control: 100%
Common groundsel (SENVU); 70 gai/Ha
  Pre-emergent Percent Mean Control: 100%
Common mallow (MALNE); 8.8 gai/Ha
  Pre-emergent Percent Mean Control: 60%
Common mallow (MALNE); 17.5 gai/Ha
  Pre-emergent Percent Mean Control: 92%
Common mallow (MALNE); 35 gai/Ha
  Pre-emergent Percent Mean Control: 95%
Common mallow (MALNE); 70 gai/Ha
  Pre-emergent Percent Mean Control: 98%
[2]; 4 Weeks After Treatment
  Mean Percent Weed Control: 81%
[2]; 8 Weeks After Treatment
  Mean Percent Weed Control: 87%
[3]; 4 Weeks After Treatment
  Mean Percent Weed Control: 53%
[3]; 8 Weeks After Treatment
  Mean Percent Weed Control: 62%
Wild mustard (SINAR); 8.8 gai/Ha
  Pre-emergent Percent Mean Control: 79%
Wild mustard (SINAR); 17.5 gai/Ha
  Pre-emergent Percent Mean Control: 91%
Wild mustard (SINAR); 35 gai/Ha
  Pre-emergent Percent Mean Control: 98%
Wild mustard (SINAR); 70 gai/Ha
  Pre-emergent Percent Mean Control: 98%
[4]; [10]
  Percent Weed Control 35 DAA: 72%
[4]; [6]
  Percent Weed Control 35 DAA: 82%
[4]; [7]
  Percent Weed Control 35 DAA: 100%
[4]; [11]
  Percent Weed Control 35 DAA: 76%
[4]; [8]
  Percent Weed Control 35 DAA: 87%
[4]; [9]
  Percent Weed Control 35 DAA: 94%
[5]; 4 Weeks After Treatment, 22.4 gai/Ha
  Mean Percent Weed Control: 67%
[5]; 4 Weeks After Treatment, 44.9 gai/Ha
  Mean Percent Weed Control: 76%
[5]; 4 Weeks After Treatment, 67.3 gai/Ha
  Mean Percent Weed Control: 93%
[5]; 4 Weeks After Treatment, 100 gai/Ha
  Mean Percent Weed Control: 92%
[5]; 8 Weeks After Treatment, 22.4 gai/Ha
  Mean Percent Weed Control: 48%
[5]; 8 Weeks After Treatment, 44.9 gai/Ha
  Mean Percent Weed Control: 63%
[5]; 8 Weeks After Treatment, 67.3 gai/Ha
  Mean Percent Weed Control: 87%
[5]; 8 Weeks After Treatment, 100 gai/Ha
  Mean Percent Weed Control: 78%
Dandelion (TAROF); [10]
  Percent Weed Control 35 DAA: 71%
Dandelion (TAROF); [6]
  Percent Weed Control 35 DAA: 96%
Dandelion (TAROF); [7]
  Percent Weed Control 35 DAA: 98%
Dandelion (TAROF); [11]
  Percent Weed Control 35 DAA: 77%
Dandelion (TAROF); [8]
  Percent Weed Control 35 DAA: 96%
Dandelion (TAROF); [9]
  Percent Weed Control 35 DAA: 96%
